How the values were obtained:
[1] = In vitro PK properties (metabolic stability); format: in vitro ADME
Method: Metabolic stabilities in rat hepatocytes were determined by incubating the compounds at low concentrations (e.g., below 1 μM) and at low cell numbers (e.g., at 1×10^6 cells/ml) to ensure linear kinetics. 7 time-points from the incubation mixture were withdrawn for analysis to define the half-life of the compound. From that half-life the intrinsic clearance in hepatocytes was calculated and used further to extrapolate the blood clearance (using the well-stirred model) and the corresponding Fmax value (maximum expected bioavailability after first pass of the liver) for the compounds. The CL and Fmax values reflect Phase I and II metabolism in hepatocytes. To minimize the influence of organic solvents in the incubation mixture their content was limited to max. 1% for ACN or max. 0.2% for DMSO. The values given in row 5 in the table in FIG. 1 are rat hepatocytes CLblood [L/h/kg] and rat hepatocytes Fmax [%].

LZK = LZK (Homo sapiens (Human), UniProt O43283); experiment: LZK biochemical assay (TR-FRET, MKK7 phosphorylation)
LZK, sequence (O43283 168-409): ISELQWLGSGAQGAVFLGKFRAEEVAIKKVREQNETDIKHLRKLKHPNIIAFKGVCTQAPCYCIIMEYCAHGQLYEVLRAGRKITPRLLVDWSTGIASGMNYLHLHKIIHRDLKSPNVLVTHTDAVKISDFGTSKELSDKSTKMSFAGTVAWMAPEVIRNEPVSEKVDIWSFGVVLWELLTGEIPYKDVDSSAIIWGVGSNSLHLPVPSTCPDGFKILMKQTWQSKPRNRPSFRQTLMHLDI
Summary of the method: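 Catalytic-domain LZK (10 nM) phosphorylated His-MKK7 (15 nM) with 15 μM ATP for 90 min at RT. Phospho-T275/S277 detected by Eu-anti-phospho-MKK7/XL665-anti-His TR-FRET after 16 h at 32° C, using the 665/Eu ratio. Buffer: 50 mM Hepes pH 7.5, 10 mM MgCl2, 1 mM DTT.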

DLK pathway activation = experiment: Mouse optic nerve crush, p-JUN immunoreactivity in RGC layer; format: in vivo; details: compared to RGCs treated with the vehicle
Method: Approximately three-month-old male C57BL/6 mice were anesthetized with 100/10 mg/kg of Ketamine/Xylazine followed by topical administration of proparacaine. Under the binocular operating scope, optic nerves were surgically exposed and crushed with Dumont N7 self-closing forceps 1-2 mm behind the globe. A small incision was made at the conjunctiva located at lateral orbit of eye globe using spring scissors. To avoid bleeding from the vasculature, minimum incision was continued until the optic nerve was exposed. After clean exposure, the optic nerve was grasped at approximately 1-2 mm from the globe for 3-7 seconds using the fine micro forceps. After careful removal of the micro forceps, the globe was relocated and Tobramycin was administered. Ten days after nerve crush, eyes were enucleated and fixed and surviving RGC was immunostained for SNCG, RBPMS and βIII-tubulin. The retinas were then imaged with a Nikon Eclipse TE2000-5 fluorescence microscope and Plan-fluor 40 Å˜/0.6 objective. […] RGCs were counted manually from each image. In a separate cohort of animals, optic nerves and retinas were sectioned and stained for phospho-JUN (an indicator of DLK pathway activation) 24 hours after optic nerve crush. Intravitreal injection, optic nerve crush, immunofluorescence, and RGC counting were performed in a masked fashion.

DLK = DLK (Homo sapiens (Human), UniProt Q12852); experiment: DLK biochemical assay (TR-FRET, MKK7 phosphorylation)
DLK, sequence (Q12852 1-520): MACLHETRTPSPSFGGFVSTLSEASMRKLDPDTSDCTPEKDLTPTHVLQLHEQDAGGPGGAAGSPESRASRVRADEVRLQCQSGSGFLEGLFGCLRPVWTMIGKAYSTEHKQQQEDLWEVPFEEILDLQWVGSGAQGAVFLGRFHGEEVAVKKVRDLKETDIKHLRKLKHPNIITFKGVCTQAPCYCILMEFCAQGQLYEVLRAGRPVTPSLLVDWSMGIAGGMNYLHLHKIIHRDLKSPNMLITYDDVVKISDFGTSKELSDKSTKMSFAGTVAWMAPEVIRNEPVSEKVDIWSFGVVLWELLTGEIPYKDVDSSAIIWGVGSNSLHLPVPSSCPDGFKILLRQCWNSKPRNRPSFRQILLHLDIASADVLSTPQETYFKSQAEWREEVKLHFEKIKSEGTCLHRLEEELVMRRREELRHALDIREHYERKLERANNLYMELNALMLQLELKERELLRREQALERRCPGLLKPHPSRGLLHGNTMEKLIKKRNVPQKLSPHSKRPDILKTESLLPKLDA
Summary of the method: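 Catalytic-domain DLK (10 nM) phosphorylates His-MKK7 (15 nM) with 60 μM ATP, 90 min at RT, in pH 7.5 HEPES buffer. Phospho-T275/S277 read by TR-FRET (Eu anti-phospho donor, XL665 anti-His acceptor) after 16 h detection, at 37° C. in 1536 or 4° C. in 384 format.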

[2] = Mouse light damage model (serial OCT and serial ERG); format: in vivo; details: versus vehicle
Method: After two weeks (14 days) acclimation in dim light (under 10-30 lux), female BALBc/J (10-12 weeks) were dark-adapted for 24 hrs. All compound injections were done in darkness with din-red light as needed. All mice were placed in light box after applying dilator (tropicamide or phenylephirine) topically. Then light was left on for 4 h with ˜3000 lux followed by dark recovery at the same condition with dark adaptation until any experimental procedure is ready or being placed in dim light condition (under 10-30 lux). Mice were then followed for 3-7 days with OCT, ERG, functional testing, and/or immunohistochemical analysis.

Structure (SMILES): CC[C@H](NC(=O)c1cc(-c2cc(C(=O)N[C@@H](C)CC)c3nc(N)nn3c2)cs1)c1ccc(F)cc1 [Compound 112, 2-Amino-N-[(2S)-butan-2-yl]-6-(5-{[(1S)-1-(4-fluorophenyl)propyl]carbamoyl}thiophen-3-yl)[1,2,4]triazolo[1,5-a]pyridine-8-carboxamide]
- metabolic stability [1]: metabolically labile
- IC50 (LZK): 29 nM
- p-cJun intensity in the RGCs (DLK pathway activation): decreased
- IC50 (DLK): 3.2 nM
- a wave amplitude in photoreceptors ([2]; serial ERG): higher
- b wave amplitude in inner retinal cells ([2]; serial ERG): higher
- outer retinal layer (ORL) thickness ([2]; serial OCT): higher

Reference: US20230382904A1, “SUBSTITUTED 4-([1,2,4]TRIAZOLO[1,5-a]PYRIDIN-6-YL)THIOPHENE-2-CARBOXAMIDE DERIVATIVES AND USE THEREOF” (The Johns Hopkins University, priority 2020, published 2023)
